This note sets out measurements from patent publication US20070082880A1 (priority 2005, published 2007).

The target in one data set is PKCθ (Homo sapiens, UniProt Q04759). The data set can be described thus: PKCθ Scintiplate Assay. In kind it is biochemical. Conditions: average value when one or more samples were tested. As for the experimental part: This assay detects the phosphorylation of a biotinylated substrate by kinase utilizing radiolabeled ATP (ATP γ P33). The enzyme is either recombinant full length PKCθ (Panvera, P2996) or the purified recombinant active kinase domain of full length PKCθ (amino acids 362-706). The substrate in this assay is a biotinylated peptide with a sequence of biotin-[…]-CONH2. The assay buffer is composed of 100 mM Hepes, pH7.5, 2 mM MgCl2, 20 mM β-glycerophosphate and 0.008% TritonX 100. A reaction mixture of ATP, ATP γ P33 (PerkinElmer), DTT, lipid activator, and the enzyme is prepared in the assay buffer and added to a 96 well polypropylene plate. The compound (diluted in DMSO in a separate 96-well polypropylene plate) is added to the reaction mixture and incubated at room temperature. Following the incubation, the peptide substrate is added to the reaction mixture to initiate the enzymatic reaction. The reaction is terminated with the addition of a stop solution (10 mM EDTA, 0.2% TritonX100, and 100 mM NaHPO4) and transferred from the assay plate to a washed streptavidin-coated 96 well scintiplate (PerkinElmer). The scintiplate is incubated at room temperature, washed in PBS with 0.1% TritonX 100, and counted in the 1450 Microbeta Trilux (Wallac, Version 2.60). Counts are recorded for each well as corrected counts per minute (CCPM). The counts are considered corrected because they are adjusted according to a P33 normalization protocol, which corrects for efficiency and background differences between the instrument detectors (software version 4.40.01).

For data set [1], the target named is T1, human PKCθ full length enzyme (Homo sapiens, UniProt Q04759).
T1 construct: human PKCθ full length enzyme (Panvera Catalog No. P2996); purchased Panvera P2996
Description: PKCθ IMAP Assay. The format is biochemical. Conditions: average value when one or more samples were tested; ATP 6 uM, PKCθ 1 nM. The essentials:
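Full-length human PKCθ (1 nM final) with 6 uM ATP and 100 nM 5FAM-labelled peptide, 5% DMSO, 3.0 mM DTT in reaction buffer. 25 min at room temperature; IMAP bead binding 20 min, fluorescence polarization read. Compounds 2:1 serially diluted; no-ATP and no-enzyme wells as controls.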

Bounds are passed on as bounds.

PKCθ, sequence (Q04759 362-706 limits assumed): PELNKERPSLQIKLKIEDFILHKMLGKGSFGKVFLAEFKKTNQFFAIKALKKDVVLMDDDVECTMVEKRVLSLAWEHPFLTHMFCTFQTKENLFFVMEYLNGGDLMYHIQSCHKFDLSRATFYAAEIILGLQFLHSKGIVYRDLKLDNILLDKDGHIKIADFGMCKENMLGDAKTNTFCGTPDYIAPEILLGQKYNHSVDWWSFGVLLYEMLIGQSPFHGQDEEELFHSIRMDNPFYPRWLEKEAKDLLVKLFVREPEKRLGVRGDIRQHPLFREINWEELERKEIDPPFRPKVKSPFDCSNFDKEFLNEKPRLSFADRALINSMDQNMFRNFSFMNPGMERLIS
T1 sequence (Q04759 whole entry): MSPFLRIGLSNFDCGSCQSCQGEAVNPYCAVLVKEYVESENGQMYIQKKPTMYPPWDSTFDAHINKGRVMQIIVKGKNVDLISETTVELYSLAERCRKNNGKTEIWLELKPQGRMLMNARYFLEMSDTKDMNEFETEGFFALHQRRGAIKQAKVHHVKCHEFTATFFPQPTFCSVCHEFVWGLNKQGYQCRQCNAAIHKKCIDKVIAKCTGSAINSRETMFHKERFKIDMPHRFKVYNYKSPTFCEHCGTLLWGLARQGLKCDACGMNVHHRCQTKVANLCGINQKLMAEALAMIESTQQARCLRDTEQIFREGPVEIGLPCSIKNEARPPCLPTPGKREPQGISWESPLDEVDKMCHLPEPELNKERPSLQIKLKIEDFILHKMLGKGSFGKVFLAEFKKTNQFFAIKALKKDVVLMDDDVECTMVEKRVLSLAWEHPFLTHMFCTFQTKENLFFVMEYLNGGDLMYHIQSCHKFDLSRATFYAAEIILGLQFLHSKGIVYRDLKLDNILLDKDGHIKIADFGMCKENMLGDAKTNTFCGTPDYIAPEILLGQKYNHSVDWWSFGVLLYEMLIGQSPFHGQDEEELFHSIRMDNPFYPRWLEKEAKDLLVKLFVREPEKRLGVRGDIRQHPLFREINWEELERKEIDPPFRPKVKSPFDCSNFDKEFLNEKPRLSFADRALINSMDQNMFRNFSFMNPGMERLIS

A word on the IC50: it is the concentration that gives 50% inhibition. Low values mean greater potency, high ones weaker potency. For orientation: melting point means the temperature, or range, at which the solid turns liquid. In the case of `N#Cc1cnc2sc(-c3ccc(CN4CCOCC4)cc3)cc2c1Nc1ccc2[nH]ccc2c1` [Compound 101, 4-(1H-indol-5-ylamino)-2-[(4-morpholin-4-ylmethyl)phenyl]thieno[2,3-b]pyridine-5-carbonitrile], the melting point was 251 to 253 °C. In addition, the IC50 at PKCθ was determined as 370 nM. The same compound came in with an IC50 in data set [1] of 400 nM.
The matching figures for `N#Cc1cnc2sc(-c3ccccc3)cc2c1Nc1ccc2[nH]ccc2c1` [Compound 107, 4-(1H-indol-5-ylamino)-2-phenylthieno[2,3-b]pyridine-5-carbonitrile]: more than 245 °C, 79 nM and 460 nM.
`CN1CCN(Cc2ccc(-c3cc4c(Nc5cccc6[nH]ccc56)c(C#N)cnc4s3)cc2)CC1` [Compound 137, 4-(1H-indol-4-ylamino)-2-{4-[(4-methylpiperazin-1-yl)methyl]phenyl}thieno[2,3-b]pyridine-5-carbonitrile] displayed a melting point of more than 245 °C. For the same compound, at PKCθ, inhibition was half-maximal at 82 nM (IC50). This compound had an IC50 in data set [1] of 52 nM.
The corresponding values for `CN1CCN(Cc2cccc(-c3cc4c(Nc5cccc6[nH]ccc56)c(C#N)cnc4s3)c2)CC1` [Compound 140, 4-(1H-indol-4-ylamino)-2-{3-[(4-methylpiperazin-1-yl)methyl]phenyl}thieno[2,3-b]pyridine-5-carbonitrile] are more than 245 °C, 34 nM and 22 nM.
As to `N#Cc1cnc2sc(-c3ccc(CN)cc3)cc2c1Nc1ccc2[nH]ccc2c1` [Compound 188, 2-[4-(aminomethyl)phenyl]-4-(1H-indol-5-ylamino)thieno[2,3-b]pyridine-5-carbonitrile], the melting point is more than 260 °C. The compound further showed an IC50 against PKCθ of 27 nM. This compound also came in with an IC50 in data set [1] of 34 nM.
The matching figures for `CN1CCN(CCC#Cc2csc3ncc(C#N)c(Nc4ccc5[nH]ccc5c4)c23)CC1` [Compound 244, 4-(1H-indol-5-ylamino)-3-[4-(4-methylpiperazin-1-yl)but-1-yn-1-yl]thieno[2,3-b]pyridine-5-carbonitrile]: 184 to 186 °C, 560 nM and 570 nM.
